Source: ChEMBL document CHEMBL5230094, “Structure-activity relationships of Wee1 inhibitors: A review” (Eur J Med Chem, 2020)

What was measured:
[1] = target: Proto-oncogene tyrosine-protein kinase Src (Homo sapiens, UniProt P12931); assay: Inhibition of c-Src (unknown origin)
Wee1-like protein kinase [2] = target: T1, Wee1-like protein kinase (Homo sapiens, UniProt P30291); assay: Binding affinity to Wee1 (unknown origin) assessed as dissociation constant
Wee1-like protein kinase [3] = target: T1, Wee1-like protein kinase; assay: Inhibition of recombinant Wee1 (unknown origin) incubated for 1 hr by TR-FRET assay
A549 = assay: Antiproliferative activity against human A549 cells by MTS based Cell Titer 96 viability assay; format: functional
Wee1-like protein kinase [4] = target: T1, Wee1-like protein kinase; assay: Inhibition of human full length N-terminal GST tagged Wee1 expressed in E coli
Wee1-like protein kinase [5] = target: T1, Wee1-like protein kinase; assay: Inhibition of recombinant Wee1 (unknown origin) by TR-FRET assay
MDA-MB-231 = assay: Antiproliferative activity against human MDA-MB-231 cells
[6] = target: T2, Serine/threonine-protein kinase Chk1 (Homo sapiens, UniProt O14757); assay: Inhibition of CHK1 (unknown origin)
T2 sequence (O14757 whole entry): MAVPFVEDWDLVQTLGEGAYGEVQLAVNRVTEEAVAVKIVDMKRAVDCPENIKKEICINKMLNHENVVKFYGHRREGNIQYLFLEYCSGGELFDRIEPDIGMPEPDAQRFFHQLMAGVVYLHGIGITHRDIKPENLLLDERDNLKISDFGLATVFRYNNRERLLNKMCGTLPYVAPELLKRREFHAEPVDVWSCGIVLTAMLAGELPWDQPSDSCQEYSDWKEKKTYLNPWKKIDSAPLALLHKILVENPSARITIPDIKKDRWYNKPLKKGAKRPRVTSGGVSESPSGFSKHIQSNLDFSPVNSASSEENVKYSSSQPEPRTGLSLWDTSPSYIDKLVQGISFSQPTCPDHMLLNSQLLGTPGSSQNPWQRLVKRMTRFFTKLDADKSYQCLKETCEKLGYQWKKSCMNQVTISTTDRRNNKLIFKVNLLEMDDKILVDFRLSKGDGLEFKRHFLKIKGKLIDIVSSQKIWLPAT

T1 sequence (P30291 whole entry): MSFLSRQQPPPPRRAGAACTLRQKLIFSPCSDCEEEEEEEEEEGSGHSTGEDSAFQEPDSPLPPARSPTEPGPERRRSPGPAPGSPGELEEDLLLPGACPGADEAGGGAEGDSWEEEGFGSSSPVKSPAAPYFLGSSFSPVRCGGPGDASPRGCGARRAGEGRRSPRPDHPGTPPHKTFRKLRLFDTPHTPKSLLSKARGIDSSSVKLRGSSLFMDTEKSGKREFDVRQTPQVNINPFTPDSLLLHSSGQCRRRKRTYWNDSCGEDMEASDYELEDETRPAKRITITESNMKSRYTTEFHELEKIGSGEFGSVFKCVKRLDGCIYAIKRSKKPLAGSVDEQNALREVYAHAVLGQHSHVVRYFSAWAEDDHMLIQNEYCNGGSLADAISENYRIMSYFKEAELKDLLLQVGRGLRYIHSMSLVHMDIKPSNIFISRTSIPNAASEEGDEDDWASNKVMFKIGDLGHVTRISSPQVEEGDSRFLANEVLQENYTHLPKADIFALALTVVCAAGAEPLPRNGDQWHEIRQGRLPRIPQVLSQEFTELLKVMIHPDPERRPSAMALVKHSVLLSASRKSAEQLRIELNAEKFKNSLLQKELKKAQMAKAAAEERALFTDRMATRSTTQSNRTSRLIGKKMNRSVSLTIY
Proto-oncogene tyrosine-protein kinase Src, sequence (P12931 2-536 limits assumed): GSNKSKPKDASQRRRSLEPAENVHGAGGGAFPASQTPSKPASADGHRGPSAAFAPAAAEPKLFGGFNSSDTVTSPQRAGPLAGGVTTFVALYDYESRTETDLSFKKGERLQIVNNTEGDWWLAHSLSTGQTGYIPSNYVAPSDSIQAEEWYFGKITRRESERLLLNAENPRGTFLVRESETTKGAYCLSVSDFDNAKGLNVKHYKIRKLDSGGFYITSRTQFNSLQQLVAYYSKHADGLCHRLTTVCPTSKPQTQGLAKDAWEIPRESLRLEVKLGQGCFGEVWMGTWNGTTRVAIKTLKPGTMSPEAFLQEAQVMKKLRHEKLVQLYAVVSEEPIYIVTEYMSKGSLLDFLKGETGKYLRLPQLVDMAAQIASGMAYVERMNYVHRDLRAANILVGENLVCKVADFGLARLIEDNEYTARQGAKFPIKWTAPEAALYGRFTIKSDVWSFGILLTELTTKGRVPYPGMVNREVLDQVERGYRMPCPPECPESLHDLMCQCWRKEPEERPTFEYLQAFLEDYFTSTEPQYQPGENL

SMILES | IC50 [1] | other results
Cn1c(=O)c(-c2c(Cl)cccc2Cl)cc2cnc(Nc3ccc(CC(N)=O)cc3)nc21 | 13 nM | 
CCN(CC)CCOc1ccc(Nc2ncc3c(C)c(-c4c(C)cccc4C)c(=O)n(C)c3n2)cc1 | 360 nM | 
CCN(CC)CCOc1ccc(Nc2ncc3c(C)c(-c4ccccc4Cl)c(=O)n(C)c3n2)cc1 | > 50000 nM | 
CCN(CC)CCOc1ccc(Nc2ncc3cc(-c4c(C)cccc4C)c(=O)n(C)c3n2)cc1 | 23 nM | 
Cn1c(=O)c(-c2c(Cl)cccc2Cl)cc2cnc(Nc3ccc(OCCCC(=O)O)cc3)nc21 | 4 nM | 
Cc1cccc(C)c1-c1cc2cnc(Nc3ccccc3)nc2n(C)c1=O | 14 nM | 
Cn1c(=O)c(-c2c(Cl)ccc(O)c2Cl)cc2cnc(Nc3ccc(OCCCC(=O)O)cc3)nc21 | 99 nM | 
CC(=O)NCC(=O)N1[C@@H]2CC[C@H]1c1cc(Nc3ncc(C(F)(F)F)c(NC4CCC4)n3)ccc12 |  | Kd (Wee1-like protein kinase [2]): 78.7 nM
C=CCn1c(=O)c2cnc(Nc3ccc(N4CCN(C(=O)OC)CC4)cc3)nc2n1-c1cccc(C(C)(C)O)n1 |  | IC50 (Wee1-like protein kinase [3]): 27.8 nM
CCOC(=O)N1CCc2c(sc3nc(SCC(=O)c4ccccc4)n(N)c(=O)c23)C1 |  | IC50 (A549): 17800 nM; IC50 (Wee1-like protein kinase [4]): 22300 nM
C=CCn1c(=O)c2cnc(Nc3ccc(CCN(C)C)cc3)nc2n1-c1cccc(C(C)(C)O)n1 |  | IC50 (Wee1-like protein kinase [5]): 1.7 nM
COc1cc(Nc2c(C#N)cnc3cc(OCCCN4CCN(C)CC4)c(OC)cc23)c(Cl)cc1Cl [BOSUTINIB] |  | IC50 (MDA-MB-231): 1800 nM
CCN(CC)CCOc1ccc(Nc2ncc3cc(-c4c(Cl)cccc4Cl)c(=O)n(C)c3n2)cc1 [PD-0166285] |  | IC50 [6]: 72 nM
